Legend:
[1] = rats, ref Ma et al. 2016, cited from earlier work
[2] = target: T1, MDR1 (Homo sapiens, UniProt P08183); assay: Inhibition of MDR1-mediated rhodamine 123 efflux in MDCK-MDR1 cells; assay type: cell-based; conditions: for inhibitory effect on efflux of MDR1-mediated rhodamine 123: GA 50–5000 μg/L, PCA 10–1000 μg/L
T1 construct: host or cells: MDCK
Excerpt: (§1) The human multidrug resistance protein (MDR)1-transfected Madin–Darby Canine Kidney (MDCK) cells, human breast cancer resistance protein (BCRP)-transfected MDCK cells, human organic anion transporter (OAT)1-transfected MDCK cells, OAT3-transfected second portion of proximal tubule (S2) cells, human organic cation transporter (OCT)2-transfected S2 cells, human organic anion transporting polypeptide (OATP)1B1-transfected human embryonic kidney 293 (HEK293) cells and their MOCK cells were kindly provided by Japan Fuji Biomedical Co., Ltd. (Osaka, Japan). Cells were cultured in DMEM supplemented with 10% FBS, 100 units/mL penicillin and 100 […]. All cells were incubated in a humidified atmosphere of 95% air and 5% CO2 at 37 °C. A solution of 0.25% trypsin-EDTA was used to detach the cells from flasks. Cell culture flasks, 24-well cell culture plates, and transwell polycarbonate inserts (12 mm diameter, 0.4 μm pore size) were purchased from Corning Co-star Corp. (Bedford, MA).
Inhibitory effects of GA and PCA on efflux transporters MDR1 and BCRP were investigated with the fluorogenic substrates rhodamine 123 (10 µM) and lucifer yellow (10 µM), respectively. The positive control inhibitors of MDR1 and BCRP were verapamil (10 µM) and cyclosporine (20 µM), respectively. The efflux experiments were adapted from previously reported methods with minor modifications (Reznicek et al. [2017]). Briefly, MDCK-MDR1, MDCK-BCRP and MDCK-mock cells were trypsinized and uniformly suspended in the designated volume of HBSS to provide a density of 4.0 × 10^5 cells/mL. For 0.5 mL of cell suspension and 1.5 mL of HBSS buffer medium were added in the apical and basolateral compartments of 12-well Transwell plates. After cultivation for 7 d, cells were washed twice and equilibrated for 30 min at 37 °C with the pre-warmed HBSS buffer. The integrity of cell monolayers was verified by the determination of the value of transepithelial electrical resistance (TEER) using a Millipore Millicell-ERS system (Millipore Corporation, Bedford, MA) (200–300 Ω × cm^2). An aliquot of 1.5 mL transport buffer containing probe substrates was added in the basolateral compartment to initiate the efflux in the presence or absence of GA (50, 150, 500, 1500 and 5000 μg/L), PCA (10, 30, 100, 300 and 1000 μg/L) or positive inhibitors at 37 °C. An aliquot of 0.5 mL empty transport buffer was placed in the apical compartment. After 2 h of co-incubation, 100 μL of HBSS in the apical compartment was transferred to 96-well plates. Fluorescence was measured at 485 nm (excitation) and 546 nm (emission) for rhodamine 123, and 425 nm (excitation) and 528 nm (emission) for Lucifer yellow. The final concentration of DMSO in the assay was less than 0.1%. All experiments were performed in triplicate.

[3] = Stability of GA and PCA in quality control samples (biological matrix); assay type: physicochemical, human; conditions: for Long-term Stability: 3 months at −80 °C; for Post-preparative Stability: 24 h at 4 °C, n = 3; for Bench-top Stability: 24 h at 25 °C
Method: The analytical method’s validation was conducted according to the FDA’s Bio-analytical Method Validation guidance (USFDA [2018]). Blank samples were obtained from six subjects for selectivity. The calibration curves were assessed by plotting the peak response ratio against the nominal concentrations of GA (1.00, 2.00, 10.0, 40.0, 100, 200, 320 and 400 μg/L) and PCA (0.50, 1.00, 5.00, 20.0, 50.0, 100, 160 and 200 μg/L). The low, medium and high QC concentrations were 3.00, 60.0 and 300 μg/L and 1.50, 30.0 and 150 μg/L for GA and PCA, respectively. Intra- and inter-day accuracy and precision were measured using six replicates of QCs in three separate batches. QCs’ acceptance criteria were ± 15% SD of nominal values, and the precision was ± 15% RSD, except for LLOQ ± 20% SD. The matrix effect and recovery were investigated using six lots of blank matrix from individual sources. Stability was assessed by spiking low and high QCs in blank samples using four conditions: for post-preparative stability (24 h at 4 °C), bench-top stability (24 h at 25 °C), long-term stability (3 months at −80 °C) and freeze-thaw stability (for three cycles).

[4] = target: T2, BCRP (Homo sapiens, UniProt Q9UNQ0); assay: Inhibition of BCRP-mediated lucifer yellow efflux in MDCK-BCRP cells; assay type: cell-based; conditions: for inhibitory effect on efflux of BCRP-mediated lucifer yellow: GA 50–5000 μg/L, PCA 10–1000 μg/L
T2 sequence (Q9UNQ0 1-655): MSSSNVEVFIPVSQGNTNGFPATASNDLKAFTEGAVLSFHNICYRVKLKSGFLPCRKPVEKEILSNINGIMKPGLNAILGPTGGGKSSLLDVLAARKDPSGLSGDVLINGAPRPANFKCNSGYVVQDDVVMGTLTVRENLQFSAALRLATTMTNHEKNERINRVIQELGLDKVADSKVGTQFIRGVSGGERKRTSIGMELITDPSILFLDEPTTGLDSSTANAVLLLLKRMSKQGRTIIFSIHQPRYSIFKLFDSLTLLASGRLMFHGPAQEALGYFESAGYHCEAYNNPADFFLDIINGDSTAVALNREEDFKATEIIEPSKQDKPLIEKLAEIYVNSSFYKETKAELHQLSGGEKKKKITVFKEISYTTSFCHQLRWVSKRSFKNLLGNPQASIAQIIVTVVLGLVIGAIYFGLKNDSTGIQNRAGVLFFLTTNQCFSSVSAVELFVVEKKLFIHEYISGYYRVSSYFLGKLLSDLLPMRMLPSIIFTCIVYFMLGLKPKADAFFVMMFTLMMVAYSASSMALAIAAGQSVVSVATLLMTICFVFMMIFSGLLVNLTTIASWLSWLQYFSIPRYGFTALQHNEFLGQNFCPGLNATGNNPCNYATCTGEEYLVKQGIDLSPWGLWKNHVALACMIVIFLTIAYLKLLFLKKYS
Excerpt: as §1
Inhibitory effects of GA and PCA on efflux transporters MDR1 and BCRP were investigated with the fluorogenic substrates rhodamine 123 (10 µM) and lucifer yellow (10 µM), respectively. The positive control inhibitors of MDR1 and BCRP were verapamil (10 µM) and cyclosporine (20 µM), respectively. The efflux experiments were adapted from previously reported methods with minor modifications (Reznicek et al. [2017]). Briefly, MDCK-MDR1, MDCK-BCRP and MDCK-mock cells were trypsinized and uniformly suspended in the designated volume of HBSS to provide a density of 4.0 × 10^5 cells/mL. For 0.5 mL of cell suspension and 1.5 mL of HBSS buffer medium were added in the apical and basolateral compartments of 12-well Transwell plates. After cultivation for 7 d, cells were washed twice and equilibrated for 30 min at 37 °C with the pre-warmed HBSS buffer. […] Fluorescence was measured at 485 nm (excitation) and 546 nm (emission) for rhodamine 123, and 425 nm (excitation) and 528 nm (emission) for Lucifer yellow. […]

[5] = high QC (GA 300.0, PCA 150.0 μg/L)
[6] = low QC (GA 3.00, PCA 1.50 μg/L)

T1 sequence (P08183 whole entry): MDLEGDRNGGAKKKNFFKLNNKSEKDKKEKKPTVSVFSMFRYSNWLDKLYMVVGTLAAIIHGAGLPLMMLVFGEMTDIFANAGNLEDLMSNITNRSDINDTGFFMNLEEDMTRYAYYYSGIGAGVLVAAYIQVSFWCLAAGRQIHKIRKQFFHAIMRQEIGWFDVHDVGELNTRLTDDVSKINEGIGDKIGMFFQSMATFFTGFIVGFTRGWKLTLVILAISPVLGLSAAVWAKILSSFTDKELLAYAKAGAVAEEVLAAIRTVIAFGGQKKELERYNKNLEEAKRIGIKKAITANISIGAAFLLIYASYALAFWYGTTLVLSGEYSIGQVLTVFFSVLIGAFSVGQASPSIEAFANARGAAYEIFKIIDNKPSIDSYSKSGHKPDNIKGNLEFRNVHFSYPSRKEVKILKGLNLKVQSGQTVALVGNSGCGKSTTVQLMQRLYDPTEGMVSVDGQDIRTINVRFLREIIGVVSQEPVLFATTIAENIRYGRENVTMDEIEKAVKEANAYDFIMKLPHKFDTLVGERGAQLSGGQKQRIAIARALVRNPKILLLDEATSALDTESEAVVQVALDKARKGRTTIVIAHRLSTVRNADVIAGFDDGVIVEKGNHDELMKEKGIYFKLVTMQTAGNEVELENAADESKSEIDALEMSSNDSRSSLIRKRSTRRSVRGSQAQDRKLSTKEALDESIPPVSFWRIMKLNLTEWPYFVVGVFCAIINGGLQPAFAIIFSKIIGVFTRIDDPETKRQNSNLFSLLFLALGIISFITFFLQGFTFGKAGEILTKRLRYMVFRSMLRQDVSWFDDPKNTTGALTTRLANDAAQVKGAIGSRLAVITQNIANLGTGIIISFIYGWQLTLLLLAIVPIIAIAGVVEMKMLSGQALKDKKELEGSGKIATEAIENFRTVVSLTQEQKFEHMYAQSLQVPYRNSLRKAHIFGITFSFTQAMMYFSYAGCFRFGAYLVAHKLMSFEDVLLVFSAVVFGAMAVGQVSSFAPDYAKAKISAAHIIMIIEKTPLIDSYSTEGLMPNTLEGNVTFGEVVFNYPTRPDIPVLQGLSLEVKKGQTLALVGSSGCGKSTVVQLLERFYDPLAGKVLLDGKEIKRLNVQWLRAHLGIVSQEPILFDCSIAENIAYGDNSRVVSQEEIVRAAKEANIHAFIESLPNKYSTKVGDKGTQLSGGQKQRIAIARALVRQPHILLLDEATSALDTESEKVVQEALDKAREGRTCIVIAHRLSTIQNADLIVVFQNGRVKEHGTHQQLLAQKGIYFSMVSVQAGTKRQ

| Structure (SMILES) | concentration in rat kidney tissue [1] [ng/g] | inhibitory effect on efflux of MDR1-mediated rhodamine 123 [2] | efflux of rhodamine 123 compared with the control ([2]; relatively high concentrations) | Long-term Stability [3, 5] [%] | Long-term Stability [3, 6] [%] | Post-preparative Stability [3, 5] [%] | Post-preparative Stability [3, 6] [%] | Bench-top Stability [3, 5] [%] | Bench-top Stability [3, 6] [%] | Three freeze-thaw cycles Stability [3, 5] [%] | Three freeze-thaw cycles Stability [3, 6] [%] | inhibitory effect on efflux of BCRP-mediated lucifer yellow [4] | unchanged amount that survived the metabolism, % of the total intake ([1]; urinary excretion) [%] | activity at 2 h, 6.5 µM ([2]; human, probe rhodamine 123 (10 µM), MDCK-MDR1 cells, PCA 1000 μg/L (6.5 µM), read-out: efflux of rhodamine 123, % of control) [%] | efflux of lucifer yellow compared with the control ([4]; relatively high concentrations) |
| --- | --- | --- | --- | --- | --- | --- | --- | --- | --- | --- | --- | --- | --- | --- | --- |
| O=C(O)c1cc(O)c(O)c(O)c1 [GA, gallic acid] | 1218 | no significant inhibitory effect | significant increase | 93.68 | 99.70 | 94.37 | 88.48 | 94.81 | 98.11 | 93.17 | 85.89 | no significant inhibitory effect |  |  |  |
| O=C(O)c1ccc(O)c(O)c1 [PCA, protocatechuic acid] |  | no significant inhibitory effect |  | 93.67 | 99.04 | 96.93 | 90.60 | 95.44 | 97.69 | 94.22 | 87.22 | no significant inhibitory effect | ~15.7 | ~190 | significant increase |

— PMC8216263 (Pharmaceutical Biology, 2021)
